Legend:
[1] = Stability in simulated gastric fluid; type: in vitro ADME; conditions: 100 μM, 2 hours at 37° C., percent of the peak area at time zero
Description: Simulated gastric and intestinal fluids containing pepsin and pancreatin respectively were prepared according to the U.S. Pharmacopoeia USP291 procedure (www.pharmacopeia.cn/v29240/usp29nf24s0_ris1s126.html). Compounds (final concentration 100 μM) were incubated in duplicate in the appropriate fluid for 2 hours at 37° C. The samples were quenched with 200 μl cold acetonitrile, vortexed for 30 seconds and then centrifuged at 16,100 g for 10 min. The supernatants were analyzed by HPLC on a C-18 column with UV detection at 252 nm. The time 0 samples were prepared by adding SGF or SIF fluid to the quenching solvent followed by the test compound. Stability of the compounds was determined by peak area of the test compounds after incubation and calculated as percent of the peak area observed at time zero.

[2] = Stability in fresh human whole blood; type: in vitro ADME; conditions: 0.5 μM, percent unchanged test compound
Outline: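 Test compound at 0.5 μM was incubated at 37 °C in fresh human K2EDTA whole blood, stored at 2–8 °C and used within 7 days, in triplicate. Samples taken at 0, 0.5, 1 and 2 h were quenched in cold acetonitrile containing internal standard and analysed by LC-MS/MS. Percent unchanged compound was derived from peak-area ratios.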

[3] = Stability in simulated intestinal fluid; type: in vitro ADME; conditions: 100 μM, 2 hours at 37° C., percent of the peak area at time zero
Outline: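 Compounds at 100 μM final, in duplicate, kept 2 h at 37° C in USP gastric fluid (pepsin) or intestinal fluid (pancreatin). Quenched with cold acetonitrile, supernatant analysed by C-18 HPLC, UV 252 nm. Remaining compound expressed as percent of time-zero peak area.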

[4] = in vitro; conditions: human, HCV Replicon CC50, Zluc cells, CellTiter-Blue
[5] = Plasma pharmacokinetics following a single oral dose in CD-1 mice; type: in vivo; conditions: single oral dose 25 mg/kg in PEG 200, CD-1 male mice; given at 1 μmol/kg
Outline: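 Male CD-1 mice given a single oral 25 mg/kg dose in PEG 200, with terminal plasma and liver taken from three animals per time point at 4, 12 and 24 h. Plasma 2′-methylguanosine measured by LC-MS/MS in positive ion mode with a deuterated internal standard, calibrated over 0.500 (LLOQ) to 200 ng/mL.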

[6] = Stability in mouse blood; type: in vitro ADME; conditions: on ice, percent unchanged test compound
Outline: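 Test compound at 0.5 μM final in whole blood, held on ice; sampled at 0, 0.5 and 1 hr in triplicate. Samples quenched with acetonitrile containing internal standard and analysed by LC-MS/MS; percent unchanged compound from peak area ratio to internal standard.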

[7] = Stability in liver subcellular fractions (microsomes); type: in vitro ADME, human; conditions: 10 μM, 1.0 mg/mL microsomal protein, NADPH, 60 min, percent unchanged test compound
Description: Stability of compounds were determined in subcellular fractions (microsomes) of human liver in duplicate for each matrix. Pooled liver microsomal proteins (1.0 mg/mL), suspended in incubation buffer (100 mM potassium phosphate, pH 7.4, 5 mM MgCl2, and 0.1 mM EDTA), were preincubated for 5 min at 37° C. with 10 μM of a test compound from a 10 mM stock solution in DMSO (final DMSO concentration was 0.1%); the reaction was initiated by the addition of NADPH (3 mM final concentration). At specific times (0 and 60 min), 0.1 mL samples were taken and the reaction terminated by the addition of 4 volumes of stop solution (acetonitrile with 500 ng/mL carbutamide as an internal standard). The samples were vortexed for 30 sec and then centrifuged at 16,000 g for 10 min. 100 μL of supernatants were transferred to 96 deep-well plates preloaded with 100 μL distilled water and analyzed after mixing by LC-MS/MS. The MS peak area ratio of the test compounds versus the internal standard was calculated and percent unchanged test compound over 60 minutes was calculated using this ratio.

[8] = system: HCV genotype 1b replicon; experiment: HCV Replicon Assay; type: cell-based; conditions: Hepatitis C virus, 72 h, Zluc cells (Huh-7-derived, HCV genotype 1b replicon, luciferase reporter), 72 hours; read-out: HCV Replicon EC50
Outline: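 Zluc Huh-7 cells with HCV genotype 1b replicon and luciferase reporter treated with 5-fold dilutions (100 μM to 0.0000512 μM final) in duplicate, or at 1 and 10 μM. Luminescence read with ONE-glo; EC50 from dose-response fits, or % inhibition at the fixed concentrations.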

CCOc1nc(N)nc2c1ncn2[C@@H]1O[C@@H]2COP(=O)(OCCCC(=O)OC(C)C)O[C@H]2[C@@]1(C)F (single isomer, unassigned) [Compound 20 Diastereomer 1]
Stability SGF [1]: 98%
Stability WB_Human (37° C.; 2 hr) [2]: 98%
Stability SIF [3]: 95%
CC50 [4]: > 50 µM
Ms Plasma 2′-MeG AUC [5]: 58 pmol · hr/mL at 1 μmol/kg
Ms Plasma 2′-MeG Cmax [5]: 5.9 pmol/mL at 1 μmol/kg
Stability WB_Mouse (ice; 1 hr) [6]: 1%
Stability HLM (1 hr) [7]: 0.35%
EC50 [8]: < 0.25 µM

— US9296778B2, “3′,5′-cyclic phosphate prodrugs for HCV infection” (Idenix Pharmaceuticals, Inc., priority 2012, dated 2016)
